# Data published in US9603820B2, “Ornithine aminotransferase inhibition with GABA analogues for treatment of hepatocellular carcinoma” (Northwestern University, priority 2014, dated 2017).
# How the values were obtained:
# [1] = molecular target: T1, ornithine aminotransferase (OAT) (Homo sapiens, UniProt P04181); test: Continuous coupled OAT assay (PYCR1/NADH), inhibition of OAT; assay type: biochemical; details: FIG. 2
# T1 sequence (P04181 36-439 limits assumed): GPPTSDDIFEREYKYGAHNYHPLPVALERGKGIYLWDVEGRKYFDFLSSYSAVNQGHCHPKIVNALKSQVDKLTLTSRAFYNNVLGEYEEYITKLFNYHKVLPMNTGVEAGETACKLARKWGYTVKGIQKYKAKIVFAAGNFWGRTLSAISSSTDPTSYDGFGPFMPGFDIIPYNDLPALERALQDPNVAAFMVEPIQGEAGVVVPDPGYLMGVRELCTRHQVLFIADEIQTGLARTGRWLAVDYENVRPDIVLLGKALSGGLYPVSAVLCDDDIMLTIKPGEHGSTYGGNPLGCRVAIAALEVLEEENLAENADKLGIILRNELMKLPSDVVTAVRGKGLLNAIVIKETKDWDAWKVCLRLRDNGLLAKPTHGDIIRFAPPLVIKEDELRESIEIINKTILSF
# Description: With these two assays in hand, the activity of a variety of compounds made previously as potential inhibitors of GABA-AT were investigated.
# [2] = molecular target: T1, ornithine aminotransferase (OAT); test: Time-dependent inactivation of OAT and dialysis of the inactivated enzyme; assay type: biochemical; details: no activity returned upon dialysis for 48 h
# Protocol: OAT activity assays were carried out using as follows.
# OAT incubated without the inactivator serves as a control. After 24 h, the enzyme solutions are transferred to a D-Tube™ Mini dialyzer and exhaustively dialyzed against the buffer (100 mM pyrophosphate buffer containing 0.1 mM alpha-ketoglutarate and 0.1 mM PLP, pH 8.0) at 4° C. protected from light. The dialysis buffer is exchanged three times every 4 h and left overnight. After 48 h of dialysis, the remaining OAT activity in each of the solutions is assayed.
# For the determination of KI and kinact values, the natural logarithm of the percentage of remaining OAT activity is plotted against the pre-incubation time at each inhibitor concentration to obtain the kobs (slope) value for each concentration. The kobs is the rate constant describing the inactivation at each inhibitor concentration. kobs is re-plotted against the inhibitor concentration using nonlinear regression analysis (Graph-Pad Prism 6; GraphPad Software Inc.). kinact and the KI were estimated from the equation below: […], where kinact is the maximal rate of inactivation, KI is the inhibitor concentration required for half-maximal inactivation, and [I] is the pre-incubation concentration of inhibitor. […] The initial rate constants for the inactivation at various concentrations of the two compounds are determined using nonlinear regression analysis.
# [3] = tested on: γ-aminobutyric acid aminotransferase (GABA-AT); test: Inhibition/inactivation of GABA-AT; assay type: biochemical; details: even at 10 mM concentration
# Hep3B cells = test: Alpha-fetoprotein (AFP) secretion in HCC cells; assay type: cell-based, human; details: Hep3B, data not shown
# HepG2 = test: Suppression of AFP levels in HCC cells; assay type: cell-based; details: HepG2, data not shown
# Safety of 13 in mice = assay type: in vivo, C57Bl/6 mice; details: 0.5-5 mg/kg, two doses on days 1 and 4, tested a week later; data not shown
smiles,measurement,setting,value
COc1ccc(CN2C(=O)[C@H]3CC(=C(F)F)[C@@H]2C3)cc1 [Compound 13],Ki,[1],3000 nM
same,"inhibition of / binding to OAT, in words",[1],most potent inhibitor
same,efficiency/potency as time-dependent irreversible inhibitor (inactivator) of OAT,[2],most efficient
same,inhibition of GABA-AT,[3],does not inhibit GABA-AT
same,suppression of AFP levels / HCC tumor growth in vitro,Hep3B cells,profound suppression
same,suppression of AFP levels / HCC tumor growth in vitro,HepG2,profound suppression
same,"liver enzymes, weight, behavior, and fur look",Safety of 13 in mice,none of the tested doses were there any notable effects
